Test results published in patent US11952577B2, “Yarrowia lipolytica yeast strains expressing an HMG-CoA reductase having increased activity or expression” (NUCELIS LLC, priority 2009, dated 2024).

Assays:
[1] = test system: Yarrowia lipolytica ATCC 90904; test: Cultivation in supplemented CYM001 media, lipid and squalene production; assay type: cell-based; conditions: 30′C, 300 rpm, 120 h
Experimental: For example, Yarrowia lipolytica ATCC 90904 was cultivated in high Carbon/Nitrogen ratio media (C/N=420, Li. Y-H., Liu, B., Zhao, Z-B., and Bai. F-W. 2006 “Optimized Culture Medium and Fermentation Conditions for Lipid Production by Rhodosporidium toruloides” Chinese Journal of Biotechnology 22(4): 650-656) (hereinafter “CYM001 Media”) supplemented with 0 to 50 μg/ml terbinafine at 30′C, 300 rpm for 120 h.
In another example, Yarrowia lipolytica ATCC 90904 was cultivated in CYM001 media supplemented with 0 to 50 μg/ml Oleic acid at 30′C, 300 rpm for 120 h.
In a further example, Yarrowia lipolytica ATCC 90904 was cultivated in CYM001 media supplemented with 0 to 200 μM clethodim at 30′C, 300 rpm for 120 h.

[2] = test system: Yarrowia lipolytica strain polg (Yeastern); test: as above; assay type: cell-based; conditions: 30′C, 300 rpm, 120 h
Description: Various Yarrowia lipolylica strains are used for lipid and squalene production including ATCC 20688, ATCC 90811, ATCC 90904, ATCC 90812, ATCC MYA-2613, and Yeastern polg. For example, Yarrowia lipolytica strain polg (Yeastern) was cultivated in high Carbon/Nitrogen ratio media (C/N=420, Li, Y-H., Liu. B., Zhao. Z-B., and Bai, F-W. 2006 “Optimized Culture Medium and Fermentation Conditions for Lipid Production by Rhodosporidium toruloides” Chinese Journal of Biotechnology 22(4): 650-656) (hereinafter “CYM001 Media”) supplemented with 0 to 50 μg/ml terbinafine at 30′C, 300 rpm for 120 h.

In the case of `CCCCCCCC/C=C\CCCCCCCC(=O)O` [Oleic acid], the “improvement of lipid accumulation in lipid/CDW over no supplementation” value ([1]; 10 μl/ml) is reported as 10 fold.
With `CCSC(C)CC1CC(=O)C(/C(CC)=N/OC/C=C/Cl)=C(O)C1` (centres unmarked) [clethodim] the “increase in the yield (mg) of squalene per 60-ml flask” value ([1]; 200 μM) was 60 fold.
`CN(C/C=C/C#CC(C)(C)C)Cc1cccc2ccccc12` [terbinafine] was tested, and the “total lipid as squalene” value ([2]; 12.5 μg/ml or higher, CYM001 media) was “up to 38%”, the “total lipid/Cell Dry weight” value ([2]; terbinafine-supplemented CYM001 media) was “up to 51%” and the “total lipid as squalene” value ([1]; 12.5 μg/ml or higher) was “up to 18.5%”.
